# Assay results as given in patent US9284312B2, “N-methyl tetrahydroquinoline M1 receptor positive allosteric modulators” (Merck Sharp & Dohme Corp., priority 2011, dated 2016).
# Biological target: T1, acetylcholine muscarinic M1 receptor (Homo sapiens, UniProt P11229)
# T1 construct: expressed in transfected cells; host or cells: CHOnfat (CHO cells, Geneticin-selected) expressing hM1
# T1 sequence (P11229 1-460): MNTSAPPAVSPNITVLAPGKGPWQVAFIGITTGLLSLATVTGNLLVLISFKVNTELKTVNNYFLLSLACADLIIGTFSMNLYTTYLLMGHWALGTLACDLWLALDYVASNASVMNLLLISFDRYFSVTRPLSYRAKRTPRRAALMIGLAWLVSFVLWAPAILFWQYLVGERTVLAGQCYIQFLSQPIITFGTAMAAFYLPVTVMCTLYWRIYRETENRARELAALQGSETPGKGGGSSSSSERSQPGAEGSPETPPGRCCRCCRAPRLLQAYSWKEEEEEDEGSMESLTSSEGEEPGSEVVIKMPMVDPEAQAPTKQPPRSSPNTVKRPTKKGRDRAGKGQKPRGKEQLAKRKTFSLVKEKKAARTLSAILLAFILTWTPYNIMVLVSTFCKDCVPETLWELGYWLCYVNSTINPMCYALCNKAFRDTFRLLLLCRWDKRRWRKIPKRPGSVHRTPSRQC
# Experiment: muscarinic FLIPR assay: intracellular calcium in CHOnfat/hM1 cells with EC20 acetylcholine (positive allosteric modulation)
# Type: cell-based
# Conditions: not given
# Protocol: The assay studies the effect of one or several concentrations of test compounds on basal or acetylcholine-stimulated Ca^2+ levels using FLIPR.
# Compounds are prepared and subjected to a preincubation period of 4 min. Thereafter, a single EC20 concentration of acetylcholine is added to each well (3 nM final). The intracellular Ca^2+ level of each sample is measured and compared to an acetylcholine control to determine any modulatory activity.
# Cells: CHOnfat/hM1, hM2, hM3 or hM4 cells are plated 24 hr before the assay at a density of 18,000 cells/well (100 μL) in a 384 well plate. CHOnfat/hM1 and CHOnfat/hM3 Growth Medium: 90% DMEM (Hi Glucose); 10% HI FBS; 2 mM L-glutamine; 0.1 mM NEAA; Pen-Strep; and 1 mg/ml Geneticin, are added. For M2Gqi5CHOnfat and M4Gqi5CHOnfat cells, an additional 600 ug/ml hygromycin is added.
# Equipment: 384 well plate, 120 μL addition plate; 96-well Whatman 2 ml Uniplate Incubator, 37° C., 5% CO2; Skatron EMBLA-384 Plate Washer; Multimek Pipetting System; Genesis Freedom 200 System; Mosquito System; Temo Nanoliter Pipetting System; and FLIPR^384 Fluorometric Imaging Plate Reader System are used.
# Buffers. Assay Buffer: Hanks Balanced Salt Solution, with 20 mM Hepes, 2.5 mM Probenecid (Sigma P-8761) first dissolved in 1 N NaOH, 1% Bovine Serum Albumin (Sigma A-9647). Dye Loading Buffer: Assay Buffer plus 1% Fetal Bovine Serum and Fluo-4AM/Pluronic Acid Mixture. 2 mM Fluo-4AM ester stock in DMSO (Molecular Probes F-14202) Concentration of 2 μM in buffer for a final concentration of […] in Assay. 20% Pluronic Acid Solution stock, with concentration of 0.04% in Buffer, 0.02% in Assay.
# 65 μL of 2 mM Fluo-4AM are mixed with 130 μL of 20% Pluronic Acid. The resulting solution and 650 μL FBS is added to the assay buffer for a total volume of 65 mL. Positive Controls: 4-Br-A23187: 10 mM in DMSO; final concentration 10 μM. Acetylcholine: 10 mM in water, working stock at both 20 μM and 30 μM in assay buffer, final concentration of 10 μM. This is used to check the maximum stimulation of the CHOK1/hM1 cells. 20 μM (2×) acetylcholine is added in the preincubation part of the assay, and the 30 μM (3×) stock is added in the second part. (EC20)Acetylcholine: 10 mM in water, working stock of 9 nM (3×), and final concentration in assay is 3 nM. This is used after the preincubation with test compounds. Addition of the EC20 Acetylcholine to each well with a test compound will ascertain any modulator activity. 24 wells contain 3 nM Acetylcholine alone as a control.
# Determining Activity of Putative Compounds:
# Screening Plate: Compounds are titrated in 96-well plates (columns 2-11), 100% DMSO, started at a concentration of 15 mM (150× stock concentration), and 3-fold serial dilutions using Genesis Freedom200 System. Four 96-well plates are combined into a 384-well plate using Mosquito Nanoliter Pipetting System by transferring 1 μl of serial diluted compounds to each well, and 1 mM acetylcholine (100× stock concentration) were added as a control. Using Temo, 49 μl assay buffer is added to each well of the 384-well plate right before assay.
# In a 96-well Whatman 2 ml Uniplate, 9 nM Acetylcholine (3×) is pipetted into wells corresponding to the screening compounds, and into control wells. The 30 μM acetylcholine control (3×) is added into control wells, and the 3× agonist plate is transferred into a 384 well plate.
# Cells are washed three times with 100 μL of buffer, leaving 30 μL of buffer in each well. Using Multimek, 30 μL of Dye Loading Buffer is added into each well and incubated at 37° C., 5% CO2 for up to one hr.
# After 60 min, the cells are washed three times with 100 μL of buffer, leaving 30 μL of buffer in each well. The cell plate, screening plate, and agonist addition plates are placed on the platform in the FLIPR and the door closed. A signal test to check background fluorescence and basal fluorescence signal is performed. Laser intensity is adjusted if necessary. […]
row,SMILES,EC50 [nM]
1,"CN(C)C(=O)Oc1ccc(Cc2cc3c(=O)n([C@H]4CCCC[C@@H]4O)cnc3c3c2C=CCN3C)cc1 [Example 8, 4-({3-[(1S,2S)-2-Hydroxycyclohexyl]-10-methyl-4-oxo-3,4,9,10-tetrahydropyrido[3,2-h]quinazolin-6-yl}methyl)phenyl dimethylcarbamate]",25

# Same assay, conditions: CHOnfat/hM1 cells, FLIPR Ca2+, 4 min preincubation, then EC20 acetylcholine (3 nM final); read-out: IP Value (inflection point)
row,SMILES,EC50 [nM]
1,"CSc1ccc(Cc2cc3c(=O)n([C@H]4CCCC[C@@H]4O)cnc3c3c2C=CCN3C)cn1 [Example 3, 3-[(1S,2S)-2-Hydroxycyclohexyl]-10-methyl-6-{[-(methylthio)-pyridin-3-yl]methyl}-9,10-dihydropyrido[3,2-h]quinazolin-4(3H)-one]",4.2
2,"CN1CC=Cc2c(Cc3ccc(Cl)nc3)cc3c(=O)n([C@H]4CCOC[C@@H]4O)cnc3c21 [Example 2, 6-[(6-Chloropyridin-3-yl)methyl]-3-[(3R,4S)-3-hydroxytetrahydro-2H-pyran-4-yl]-10-methyl-9,10-dihydropyrido[3,2-h]quinazolin-4(3H)-one]",4.3
3,"CN1CC=Cc2c(Cc3ccc(Cl)nc3)cc3c(=O)n([C@H]4CCCC[C@@H]4O)cnc3c21 [Example 1, 6-[(6-Chloropyridin-3-yl)methyl]-3-[(1S,2S)-2-hydroxycyclohexyl]-10-methyl-9,10-dihydropyrido[3,2-h]quinazolin-4(3H)-one]",3
4,"CN1CC=Cc2c(Cc3cccnc3)cc3c(=O)n([C@H]4CCCC[C@@H]4O)cnc3c21 [Example 5, 3-[(1S,2S)-2-Hydroxycyclohexyl]-10-methyl-6-(pyridine-3-ylmethyl)-9,10-dihydropyrido[3,2-h]quinazolin-4(3H)-one]",21
5,"COc1ccc(Cc2cc3c(=O)n([C@H]4CCCC[C@@H]4O)cnc3c3c2C=CCN3C)cn1 [Example 4, 3-[(1S,2S)-2-Hydroxycyclohexyl]-6-[(6-methoxypyridin-3-yl)methyl]-10-methyl-9,10-dihydropyrido[3,2-h]quinazolin-4(3H)-one]",14
6,"CN1CC=Cc2c(Cc3ccc(-c4cnn(C)c4)nc3)cc3c(=O)n([C@H]4CCCC[C@@H]4O)cnc3c21 [Example 6, 3-[(1S,2S)-2-Hydroxycyclohexyl]-10-methyl-6-{[6-(1-methyl-1H-pyrazol-4-yl)pyridin-3-yl]methyl}-9,10-dihydropyrido[3,2-h]quinazolin-4(3H)-one]",2.6

# Continued, values first:
row,EC50 [nM],SMILES
1,5.2,"COc1cc(Cc2cc3c(=O)n([C@H]4CCCC[C@@H]4O)cnc3c3c2C=CCN3C)ccn1 [Example 9, 3-[(1S,2S)-2-Hydroxycyclohexyl]-6-[(2-methoxypyridin-4-yl)methyl]-10-methyl-9,10-dihydropyrido[3,2-h]quinazolin-4(3H)-one]"
2,2.6,"CN1CC=Cc2c(Cc3ccc(O)cc3)cc3c(=O)n([C@H]4CCCC[C@@H]4O)cnc3c21 [Example 7, 6-(4-Hydroxybenzyl)-3-[(1S,2S)-2-hydroxycyclohexyl]-10-methyl-9,10-dihydropyrido[3,2-h]quinazolin-4(3H)-one]"

# Same assay, conditions: column head 'H Pot.' of the untitled table after Table 1; no unit or method printed; read-out: H Pot.
row,EC50 [nM],SMILES
1,263,CCN1CC=Cc2c(Cc3ccc(Cl)nc3)cc3c(=O)n([C@H]4CCCC[C@@H]4O)cnc3c21 [Example 46]
